Experiments:
[1] = biological target: Mitogen-activated protein kinase 1 (Homo sapiens) (UniProt P28482); conditions: Compound concentration 1000.0 nM
[2] = biological target: Serine/threonine-protein kinase pim-3 (Homo sapiens) (UniProt Q86V86); conditions: Compound concentration 1000.0 nM
[3] = biological target: Macrophage-stimulating protein receptor (Homo sapiens) (UniProt Q04912); conditions: Compound concentration 1000.0 nM
[4] = biological target: Serine/threonine-protein kinase PAK 1 (Homo sapiens) (UniProt Q13153); conditions: Compound concentration 1000.0 nM
[5] = biological target: Phosphatidylinositol 4-phosphate 5-kinase type-1 alpha (Homo sapiens) (UniProt Q99755); conditions: Compound concentration 1000.0 nM
[6] = biological target: Serine/threonine-protein kinase SIK1 (Homo sapiens) (UniProt P57059); conditions: Compound concentration 1000.0 nM
Sequence of Serine/threonine-protein kinase SIK1 (Homo sapiens) (P57059 whole entry): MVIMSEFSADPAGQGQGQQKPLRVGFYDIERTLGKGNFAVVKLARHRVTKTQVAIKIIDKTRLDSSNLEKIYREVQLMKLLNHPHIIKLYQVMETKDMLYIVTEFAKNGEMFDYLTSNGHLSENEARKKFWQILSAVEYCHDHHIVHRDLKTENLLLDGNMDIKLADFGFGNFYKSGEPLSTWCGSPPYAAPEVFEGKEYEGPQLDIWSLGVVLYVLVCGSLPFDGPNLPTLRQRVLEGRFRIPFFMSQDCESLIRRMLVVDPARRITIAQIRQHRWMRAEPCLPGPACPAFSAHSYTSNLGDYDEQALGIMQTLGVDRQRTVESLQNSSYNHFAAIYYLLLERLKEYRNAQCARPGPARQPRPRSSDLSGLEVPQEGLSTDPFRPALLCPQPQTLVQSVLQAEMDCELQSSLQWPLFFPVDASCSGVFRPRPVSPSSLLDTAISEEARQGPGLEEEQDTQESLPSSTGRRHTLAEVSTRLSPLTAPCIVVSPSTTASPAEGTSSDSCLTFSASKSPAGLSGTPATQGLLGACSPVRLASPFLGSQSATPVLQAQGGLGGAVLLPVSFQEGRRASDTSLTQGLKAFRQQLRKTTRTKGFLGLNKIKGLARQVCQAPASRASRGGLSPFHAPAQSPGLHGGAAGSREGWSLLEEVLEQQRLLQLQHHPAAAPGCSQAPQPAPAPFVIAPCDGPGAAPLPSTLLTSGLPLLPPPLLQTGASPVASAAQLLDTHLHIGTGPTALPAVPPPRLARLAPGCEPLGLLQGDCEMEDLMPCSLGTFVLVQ

[7] = biological target: Wee1-like protein kinase 2 (Homo sapiens) (UniProt P0C1S8); conditions: Compound concentration 1000.0 nM
[8] = biological target: Wee1-like protein kinase (Homo sapiens) (UniProt P30291); conditions: Compound concentration 1000.0 nM
[9] = biological target: Dual serine/threonine and tyrosine protein kinase (Homo sapiens) (UniProt Q6XUX3); conditions: Compound concentration 1000.0 nM
Sequence of Dual serine/threonine and tyrosine protein kinase (Homo sapiens) (Q6XUX3 whole entry): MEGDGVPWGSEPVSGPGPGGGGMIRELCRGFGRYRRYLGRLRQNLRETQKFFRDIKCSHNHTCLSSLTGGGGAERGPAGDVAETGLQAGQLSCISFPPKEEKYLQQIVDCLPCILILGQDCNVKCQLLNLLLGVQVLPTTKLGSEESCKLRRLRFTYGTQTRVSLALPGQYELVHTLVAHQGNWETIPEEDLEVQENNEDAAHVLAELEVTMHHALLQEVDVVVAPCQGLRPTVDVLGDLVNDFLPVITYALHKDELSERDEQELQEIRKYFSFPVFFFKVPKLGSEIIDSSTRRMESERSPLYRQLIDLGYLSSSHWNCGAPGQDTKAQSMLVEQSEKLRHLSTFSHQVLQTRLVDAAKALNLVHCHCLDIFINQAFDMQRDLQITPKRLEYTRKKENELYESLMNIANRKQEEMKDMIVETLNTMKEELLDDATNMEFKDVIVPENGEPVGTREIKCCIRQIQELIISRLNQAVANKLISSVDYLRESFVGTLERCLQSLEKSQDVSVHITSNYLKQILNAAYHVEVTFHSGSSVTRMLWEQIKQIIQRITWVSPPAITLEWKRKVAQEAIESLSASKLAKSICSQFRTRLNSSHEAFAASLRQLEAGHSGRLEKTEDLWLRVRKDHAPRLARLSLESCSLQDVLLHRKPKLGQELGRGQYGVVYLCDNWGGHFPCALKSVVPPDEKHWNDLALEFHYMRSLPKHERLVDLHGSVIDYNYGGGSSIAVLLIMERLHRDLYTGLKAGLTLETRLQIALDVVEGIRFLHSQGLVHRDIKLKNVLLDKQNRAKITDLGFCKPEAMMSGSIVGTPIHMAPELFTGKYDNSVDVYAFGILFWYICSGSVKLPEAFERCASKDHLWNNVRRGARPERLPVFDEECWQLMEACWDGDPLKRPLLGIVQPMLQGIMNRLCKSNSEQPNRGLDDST

[10] = biological target: Megakaryocyte-associated tyrosine-protein kinase (Homo sapiens) (UniProt P42679); conditions: Compound concentration 1000.0 nM
[11] = biological target: Ribosomal protein S6 kinase alpha-4 (Homo sapiens) (UniProt O75676); conditions: Compound concentration 1000.0 nM
[12] = biological target: Tyrosine-protein kinase Tec (Homo sapiens) (UniProt P42680); conditions: Compound concentration 1000.0 nM
[13] = biological target: Histamine H2 receptor (Homo sapiens) (UniProt P25021); conditions: Compound concentration 10.0 uM
[14] = biological target: cAMP-dependent protein kinase catalytic subunit beta (Homo sapiens) (UniProt P22694); conditions: Compound concentration 1000.0 nM
[15] = biological target: Casein kinase I isoform gamma-2 (Homo sapiens) (UniProt P78368); conditions: Compound concentration 1000.0 nM
[16] = biological target: Tyrosine-protein kinase Fes/Fps (Homo sapiens) (UniProt P07332); conditions: Compound concentration 1000.0 nM
[17] = biological target: Serine/threonine-protein kinase Nek1 (Homo sapiens) (UniProt Q96PY6); conditions: Compound concentration 1000.0 nM
[18] = biological target: Serine/threonine-protein kinase Nek10 (Homo sapiens) (UniProt Q6ZWH5); conditions: Compound concentration 1000.0 nM
[19] = biological target: cAMP-dependent protein kinase catalytic subunit alpha (Homo sapiens) (UniProt P17612); conditions: Compound concentration 1000.0 nM
[20] = biological target: NT-3 growth factor receptor (Homo sapiens) (UniProt Q16288); conditions: Compound concentration 1000.0 nM
[21] = biological target: Calcium/calmodulin-dependent protein kinase type 1B (Homo sapiens) (UniProt Q6P2M8); conditions: Compound concentration 1000.0 nM
[22] = biological target: MAP kinase-interacting serine/threonine-protein kinase 2 (Homo sapiens) (UniProt Q9HBH9); conditions: Compound concentration 1000.0 nM
[23] = biological target: Adenosine receptor A2b (Homo sapiens) (UniProt P29275); experiment: A2B (h) Eurofins-Cerep binding assay; design: ligand concentration 5 nM; conditions: filed as antagonist, Compound concentration 10.0 uM
Sequence of Adenosine receptor A2b (Homo sapiens) (P29275 whole entry): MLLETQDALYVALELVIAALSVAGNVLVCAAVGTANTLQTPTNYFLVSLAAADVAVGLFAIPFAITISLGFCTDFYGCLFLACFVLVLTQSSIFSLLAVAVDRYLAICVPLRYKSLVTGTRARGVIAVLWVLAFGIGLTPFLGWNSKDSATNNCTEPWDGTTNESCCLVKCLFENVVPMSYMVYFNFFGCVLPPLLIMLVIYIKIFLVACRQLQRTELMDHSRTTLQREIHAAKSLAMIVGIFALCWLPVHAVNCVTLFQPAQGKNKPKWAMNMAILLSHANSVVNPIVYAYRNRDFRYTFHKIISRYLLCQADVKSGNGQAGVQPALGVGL

[24] = biological target: cAMP-dependent protein kinase catalytic subunit PRKX (Homo sapiens) (UniProt P51817); conditions: Compound concentration 1000.0 nM
[25] = biological target: Adenosine receptor A1 (Homo sapiens) (UniProt P30542); experiment: A1 (h) Eurofins-Cerep binding assay; design: ligand concentration 1 nM; conditions: filed as antagonist, Compound concentration 10.0 uM
Sequence of Adenosine receptor A1 (Homo sapiens) (P30542 whole entry): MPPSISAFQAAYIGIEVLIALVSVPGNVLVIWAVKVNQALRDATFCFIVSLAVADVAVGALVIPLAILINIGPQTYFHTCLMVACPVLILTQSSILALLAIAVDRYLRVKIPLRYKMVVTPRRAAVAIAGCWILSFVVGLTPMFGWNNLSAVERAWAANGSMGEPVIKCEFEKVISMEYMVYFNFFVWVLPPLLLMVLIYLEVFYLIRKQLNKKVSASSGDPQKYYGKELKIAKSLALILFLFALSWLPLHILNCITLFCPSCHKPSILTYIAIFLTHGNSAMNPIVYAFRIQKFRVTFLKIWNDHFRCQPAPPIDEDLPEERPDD

[26] = biological target: Serine/threonine-protein kinase MRCK gamma (Homo sapiens) (UniProt Q6DT37); conditions: Compound concentration 1000.0 nM
[27] = biological target: Serine/threonine-protein kinase TNNI3K (Homo sapiens) (UniProt Q59H18); conditions: Compound concentration 1000.0 nM
[28] = biological target: Tyrosine-protein kinase SYK (Homo sapiens) (UniProt P43405); conditions: Compound concentration 1000.0 nM
[29] = biological target: Dual specificity protein kinase CLK2 (Homo sapiens) (UniProt P49760); conditions: Compound concentration 1000.0 nM
Sequence of Dual specificity protein kinase CLK2 (Homo sapiens) (P49760 whole entry, looked up): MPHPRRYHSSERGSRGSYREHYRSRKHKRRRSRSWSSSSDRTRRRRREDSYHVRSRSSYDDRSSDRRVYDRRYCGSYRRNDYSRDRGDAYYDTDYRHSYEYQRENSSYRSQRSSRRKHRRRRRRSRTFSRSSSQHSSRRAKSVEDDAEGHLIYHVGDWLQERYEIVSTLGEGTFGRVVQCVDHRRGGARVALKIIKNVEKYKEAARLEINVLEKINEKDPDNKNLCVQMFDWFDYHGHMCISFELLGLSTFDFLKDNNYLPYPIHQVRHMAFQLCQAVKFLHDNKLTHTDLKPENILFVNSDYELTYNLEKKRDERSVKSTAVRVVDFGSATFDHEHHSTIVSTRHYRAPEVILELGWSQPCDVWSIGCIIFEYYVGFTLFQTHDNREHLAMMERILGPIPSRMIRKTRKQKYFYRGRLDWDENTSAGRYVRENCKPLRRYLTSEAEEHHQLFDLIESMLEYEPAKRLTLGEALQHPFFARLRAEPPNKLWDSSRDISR

[30] = biological target: SRSF protein kinase 2 (Homo sapiens) (UniProt P78362); conditions: Compound concentration 1000.0 nM
[31] = biological target: Serine/threonine-protein kinase PAK 6 (Homo sapiens) (UniProt Q9NQU5); conditions: Compound concentration 1000.0 nM
[32] = test system: Phosphatidylinositol 4,5-bisphosphate 3-kinase catalytic subunit alpha isoform (Homo sapiens), P42336 [M1043I]; conditions: Compound concentration 1000.0 nM
[33] = biological target: Citron Rho-interacting kinase (Homo sapiens) (UniProt O14578); conditions: Compound concentration 1000.0 nM
[34] = biological target: Mitogen-activated protein kinase kinase kinase 20 (Homo sapiens) (UniProt Q9NYL2); conditions: Compound concentration 1000.0 nM
[35] = biological target: D(1A) dopamine receptor (Homo sapiens) (UniProt P21728); experiment: D1 (h) Eurofins-Cerep binding assay; design: ligand concentration 0.3 nM; conditions: filed as antagonist, Compound concentration 10.0 uM
[36] = biological target: Sodium/potassium-transporting ATPase (Sus scrofa) (UniProt P05027+P05024+D2WKD8+D2WKD7+F1ST41); experiment: ATPase (Na+/K+) Eurofins-Cerep enzyme and uptake assay; format: protein-complex assay; conditions: Compound concentration 10.0 uM
[37] = biological target: Cannabinoid receptor 1 (Homo sapiens) (UniProt P21554); experiment: CB1 (h) Eurofins-Cerep binding assay; design: ligand concentration 0.5 nM; conditions: filed as agonist, Compound concentration 10.0 uM
[38] = biological target: Uncharacterized serine/threonine-protein kinase SBK3 (Homo sapiens) (UniProt P0C264); conditions: Compound concentration 1000.0 nM
[39] = biological target: Serine/threonine-protein kinase 32C (Homo sapiens) (UniProt Q86UX6); conditions: Compound concentration 1000.0 nM
[40] = biological target: Ribosomal protein S6 kinase alpha-1 (Homo sapiens) (UniProt Q15418); conditions: Compound concentration 1000.0 nM
Sequence of Ribosomal protein S6 kinase alpha-1 (Homo sapiens) (Q15418 whole entry): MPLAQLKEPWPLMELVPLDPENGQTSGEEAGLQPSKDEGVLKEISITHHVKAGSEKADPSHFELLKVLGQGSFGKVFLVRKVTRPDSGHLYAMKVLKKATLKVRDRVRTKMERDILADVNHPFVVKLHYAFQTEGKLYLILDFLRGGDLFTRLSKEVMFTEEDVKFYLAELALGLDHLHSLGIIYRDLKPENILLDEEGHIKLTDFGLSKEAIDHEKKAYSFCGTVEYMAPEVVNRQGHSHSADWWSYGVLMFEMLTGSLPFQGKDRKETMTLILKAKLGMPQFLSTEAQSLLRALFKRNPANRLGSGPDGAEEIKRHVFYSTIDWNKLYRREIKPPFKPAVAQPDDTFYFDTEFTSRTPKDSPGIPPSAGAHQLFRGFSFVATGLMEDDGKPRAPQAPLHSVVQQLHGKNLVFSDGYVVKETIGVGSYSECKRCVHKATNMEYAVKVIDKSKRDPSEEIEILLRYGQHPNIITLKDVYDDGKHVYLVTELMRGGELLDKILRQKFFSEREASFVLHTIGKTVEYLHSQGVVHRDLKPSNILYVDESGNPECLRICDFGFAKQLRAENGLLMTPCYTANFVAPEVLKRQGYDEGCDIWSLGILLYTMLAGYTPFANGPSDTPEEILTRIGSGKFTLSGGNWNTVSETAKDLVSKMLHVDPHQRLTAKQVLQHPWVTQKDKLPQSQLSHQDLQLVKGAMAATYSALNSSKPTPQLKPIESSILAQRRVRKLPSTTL

[41] = biological target: Death-associated protein kinase 1 (Homo sapiens) (UniProt P53355); conditions: Compound concentration 1000.0 nM
[42] = biological target: Serine/threonine-protein kinase 32B (Homo sapiens) (UniProt Q9NY57); conditions: Compound concentration 1000.0 nM
[43] = biological target: Mitotic checkpoint serine/threonine-protein kinase BUB1 (Homo sapiens) (UniProt O43683); conditions: Compound concentration 1000.0 nM
[44] = biological target: Vascular endothelial growth factor receptor 2 (Homo sapiens) (UniProt P35968); conditions: Compound concentration 1000.0 nM
Sequence of Vascular endothelial growth factor receptor 2 (Homo sapiens) (P35968 whole entry): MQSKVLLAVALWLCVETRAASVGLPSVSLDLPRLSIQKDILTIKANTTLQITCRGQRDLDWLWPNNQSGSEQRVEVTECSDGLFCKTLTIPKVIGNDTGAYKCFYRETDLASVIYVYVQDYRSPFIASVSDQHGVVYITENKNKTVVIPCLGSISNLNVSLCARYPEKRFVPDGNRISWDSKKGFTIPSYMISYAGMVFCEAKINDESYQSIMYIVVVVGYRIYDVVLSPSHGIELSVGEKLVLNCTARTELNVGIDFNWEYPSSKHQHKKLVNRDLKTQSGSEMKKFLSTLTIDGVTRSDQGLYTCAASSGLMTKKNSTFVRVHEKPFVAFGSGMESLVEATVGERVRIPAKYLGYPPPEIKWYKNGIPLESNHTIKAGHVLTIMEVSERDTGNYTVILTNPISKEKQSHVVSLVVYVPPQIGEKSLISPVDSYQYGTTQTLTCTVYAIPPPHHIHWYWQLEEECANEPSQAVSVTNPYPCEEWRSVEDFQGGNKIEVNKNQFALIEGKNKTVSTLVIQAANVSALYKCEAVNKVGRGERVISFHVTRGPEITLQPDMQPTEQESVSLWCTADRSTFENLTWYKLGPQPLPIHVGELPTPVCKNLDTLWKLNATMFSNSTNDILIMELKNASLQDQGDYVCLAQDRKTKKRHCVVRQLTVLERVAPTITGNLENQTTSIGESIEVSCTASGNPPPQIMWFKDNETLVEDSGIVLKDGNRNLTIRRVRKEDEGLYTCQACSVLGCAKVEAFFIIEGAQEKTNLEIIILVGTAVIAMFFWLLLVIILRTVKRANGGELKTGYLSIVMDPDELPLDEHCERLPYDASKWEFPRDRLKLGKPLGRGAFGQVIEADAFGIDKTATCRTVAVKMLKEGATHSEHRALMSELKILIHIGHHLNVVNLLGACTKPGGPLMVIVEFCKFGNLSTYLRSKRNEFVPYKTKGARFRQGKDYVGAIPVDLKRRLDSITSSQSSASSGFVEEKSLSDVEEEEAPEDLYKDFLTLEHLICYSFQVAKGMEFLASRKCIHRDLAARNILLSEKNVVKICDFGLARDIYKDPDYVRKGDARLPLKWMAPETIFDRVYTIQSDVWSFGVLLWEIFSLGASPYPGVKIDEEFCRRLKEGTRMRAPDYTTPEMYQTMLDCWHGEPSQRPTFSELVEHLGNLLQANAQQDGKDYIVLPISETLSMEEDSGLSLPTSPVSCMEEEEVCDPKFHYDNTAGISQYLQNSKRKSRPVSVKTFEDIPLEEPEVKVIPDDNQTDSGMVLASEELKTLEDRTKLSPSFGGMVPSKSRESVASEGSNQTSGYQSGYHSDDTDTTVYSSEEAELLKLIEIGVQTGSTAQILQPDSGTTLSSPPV

COc1ccc2c(c1)O[C@H](c1ccc(OC)c(OC)c1)C[C@@H]2NC(=O)C1(c2ccc3c(c2)OC(F)(F)O3)CC1 [A-1596584]
residual activity [1]: 99% | residual activity [2]: 100% | residual activity [3]: 100% | residual activity [4]: 100% | residual activity [5]: 84% | residual activity [6]: 100% | residual activity [7]: 100% | residual activity [8]: 100% | residual activity [9]: 94% | residual activity [10]: 100% | residual activity [11]: 100% | residual activity [12]: 100% | inhibition [13]: -0.89% | residual activity [14]: 99% | residual activity [15]: 95% | residual activity [16]: 97% | residual activity [17]: 100% | residual activity [18]: 100% | residual activity [19]: 100% | residual activity [20]: 92% | residual activity [21]: 100% | residual activity [22]: 100% | % Inhibition of Control Specific Binding (Mean n=2) [23]: 3.6% | residual activity [24]: 100% | % Inhibition of Control Specific Binding (Mean n=2) [25]: 11.5% | residual activity [26]: 89% | residual activity [27]: 100% | residual activity [28]: 100% | residual activity [29]: 95% | residual activity [30]: 100% | residual activity [31]: 100% | residual activity [32]: 84% | residual activity [33]: 92% | residual activity [34]: 97% | % Inhibition of Control Specific Binding (Mean n=2) [35]: 7.4% | % Inhibition of Control Values (Mean n=2) [36]: 2.2% | % Inhibition of Control Specific Binding (Mean n=2) [37]: 46% | residual activity [38]: 100% | residual activity [39]: 84% | residual activity [40]: 100% | residual activity [41]: 100% | residual activity [42]: 100% | residual activity [43]: 100% | residual activity [44]: 88%

COc1ccc2c(c1)O[C@@H](c1ccc(OC)c(OC)c1)C[C@H]2NC(=O)C1(c2ccc3c(c2)OC(F)(F)O3)CC1 [A-1596586]
residual activity [1]: 100% | residual activity [2]: 91% | residual activity [3]: 94% | residual activity [4]: 89% | residual activity [5]: 72% | residual activity [6]: 100% | residual activity [7]: 100% | residual activity [8]: 99% | residual activity [9]: 76% | residual activity [10]: 93% | residual activity [11]: 94% | residual activity [12]: 89% | inhibition [13]: -6.08% | residual activity [14]: 95% | residual activity [15]: 88% | residual activity [16]: 93% | residual activity [17]: 100% | residual activity [18]: 86% | residual activity [19]: 100% | residual activity [20]: 83% | residual activity [21]: 100% | residual activity [22]: 93% | % Inhibition of Control Specific Binding (Mean n=2) [23]: 3.7% | residual activity [24]: 83% | % Inhibition of Control Specific Binding (Mean n=2) [25]: 14.3% | residual activity [26]: 89% | residual activity [27]: 100% | residual activity [28]: 100% | residual activity [29]: 96% | residual activity [30]: 91% | residual activity [31]: 79% | residual activity [32]: 91% | residual activity [33]: 90% | residual activity [34]: 97% | % Inhibition of Control Specific Binding (Mean n=2) [35]: 14% | % Inhibition of Control Values (Mean n=2) [36]: 0.8% | % Inhibition of Control Specific Binding (Mean n=2) [37]: 40.8% | residual activity [38]: 100% | residual activity [39]: 100% | residual activity [40]: 85% | residual activity [41]: 99% | residual activity [42]: 100% | residual activity [43]: 99% | residual activity [44]: 80%
